The results in this text go back to patent publication US20100267774A1, “P38 MAP KINASE INHIBITORS” (CHROMA THERAPEUTICS LTD., priority 2007, published 2010).

The subject of one assay is THP-1 TNFα release. The assay can be described thus: LPS-stimulation of THP-1 cells, TNF-α release by ELISA. It is filed as cell-based. To be noted: Homo sapiens, THP-1, 6 h; read-out: Inhibitor activity versus THP-1 TNFα release. The procedure: THP-1 cells were plated in 100 μl at a density of 4×10^4 cells/well in V-bottomed 96 well tissue culture treated plates and incubated at 37° C. in 5% CO2 for 16 hrs. 2 hrs after the addition of the inhibitor in 100 μl of tissue culture media, the cells were stimulated with LPS (E coli strain 005:B5, Sigma) at a final concentration of 1 μg/ml and incubated at 37° C. in 5% CO2 for 6 hrs. TNF-α levels were measured from cell-free supernatants by sandwich ELISA (R&D Systems #QTA00B).

The next assay has as its target T1, p38 MAP Kinase a (Homo sapiens, UniProt Q16539).
T1 construct: purchased Upstate (Dundee UK)
The assay can be described thus: p38 MAP Kinase activity, radiometric filter-binding assay (Upstate). The format is biochemical. To be noted: IC50 range; read-out: Inhibitor activity versus p38 MAPKa. How it is done:
The ability of compounds to inhibit p38 MAP a Kinase activity was measured in an assay performed by Upstate (Dundee UK). In a final reaction volume of 25 μL, p38 MAP Kinase a (5-10 mU) is incubated with 25 mM Tris pH 7.5, 0.002 mMEGTA, 0.33 mg/mL myelin basic protein, 10 mM MgAcetate and [g-33P-ATP] (specific activity approx. 500 cpm/pmol, concentration as required). The reaction is initiated by the addition of the MgATP mix. After incubation for 40 minutes at room temperature, the reaction is stopped by the addition of 5 μL of a 3% phosphoric acid solution. 10 μL of the reaction is then spotted onto a P30 filtermat and washed three times for 5 minutes in 75 mM phosphoric acid and once in methanol prior to drying and scintillation counting.
Duplicate data points are generated from a 1/3 log dilution series of a stock solution in DMSO. Nine dilutions steps are made from a top concentration of 10 μM, and a ‘no compound’ blank is included. The standard radiometric filter-binding assay is performed at an ATP concentration at, or close to, the Km. Data from scintillation counts are collected and subjected to free-fit analysis by Prism software. From the curve generated, the concentration giving 50% inhibition is determined and reported.

T1 sequence (Q16539 whole entry): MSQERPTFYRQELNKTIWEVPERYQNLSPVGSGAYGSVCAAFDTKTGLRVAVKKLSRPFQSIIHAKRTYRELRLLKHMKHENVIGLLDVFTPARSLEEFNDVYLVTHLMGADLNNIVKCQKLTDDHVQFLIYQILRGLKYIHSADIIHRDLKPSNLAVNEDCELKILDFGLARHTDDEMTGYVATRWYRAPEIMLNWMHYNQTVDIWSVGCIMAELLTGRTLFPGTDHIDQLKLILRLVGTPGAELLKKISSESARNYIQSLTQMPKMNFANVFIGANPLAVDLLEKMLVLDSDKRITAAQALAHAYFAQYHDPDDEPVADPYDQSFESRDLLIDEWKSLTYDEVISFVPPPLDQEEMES

For the compound `CC(C)C[C@@H](NCCc1ccc(-n2c(N)c(C(=O)c3ccc(F)cc3F)ccc2=O)cc1)C(=O)OC1CCCC1` [Example 9, Cyclopentyl N-[2-(4-{6-amino-5-[(2,4-difluorophenyl)carbonyl]-2-oxopyridin-1(2H)-yl}phenyl)ethyl]-D-leucinate], the IC50 in the assay with THP-1 TNFα release and at p38 MAP Kinase a was 100 to 1000 nM throughout.
Turning to `CC(C)C[C@H](NCCc1cc(F)c(-n2c(N)c(C(=O)c3ccc(F)cc3F)ccc2=O)c(F)c1)C(=O)OC(C)(C)C` [Example 37, tert-butyl N-(2-{4-[6-amino-5-(2,4-difluorobenzoyl)-2-oxopyridin-1(2H)-yl]-3,5-difluorophenyl}ethyl)-L-leucinate], the IC50 is below 100 nM in the assay with THP-1 TNFα release and 100 to 1000 nM on p38 MAP Kinase a.
The like results for `C[C@@H](OC(C)(C)C)[C@H](NCCc1ccc(-n2c(N)c(C(=O)c3ccc(F)cc3F)ccc2=O)cc1)C(=O)OC1CCCC1` [Example 15, Cyclopentyl N-[2-(4-{6-amino-5-[(2,4-difluorophenyl)carbonyl]-2-oxopyridin-1(2H)-yl}phenyl)ethyl]-O-tert-butyl-L-threoninate] were, in that order, above 1000 nM and 100 to 1000 nM.
Turning to `CC(C)(C)OC(=O)[C@@H](NCCc1cc(F)c(-n2c(N)c(C(=O)c3ccc(F)cc3)ccc2=O)c(F)c1)c1ccccc1` [Example 27, tert-butyl (2S)-[(2-{4-[6-amino-5-(4-fluorobenzoyl)-2-oxopyridin-1(2H)-yl]-3,5-difluorophenyl}ethyl)amino](phenyl)acetate], the IC50 was below 100 nM with THP-1 TNFα release and 100 to 1000 nM at p38 MAP Kinase a.
The like results for `C[C@H](NCCc1ccc(-n2c(N)c(C(=O)c3ccc(F)cc3F)ccc2=O)cc1)C(=O)OC1CCCC1` [Example 20, Cyclopentyl N-[2-(4-{6-amino-5-[(2,4-difluorophenyl)carbonyl]-2-oxopyridin-1(2H)-yl}phenyl)ethyl]-L-alaninate] were, in that order, below 100 nM and below 100 nM.
In the case of `Nc1c(C(=O)c2ccc(F)cc2)ccc(=O)n1-c1c(F)cc(CCN[C@H](C(=O)OC2CCCC2)c2ccccc2)cc1F` [Example 26, Cyclopentyl (2S)-[(2-{-4-[6-amino-5-(4-fluorobenzoyl)-2-oxopyridin-1(2H)-yl]-3,5-difluorophenyl}ethyl)amino](phenyl)acetate], the IC50 with THP-1 TNFα release is below 100 nM; at p38 MAP Kinase a, 100 to 1000 nM.
For `Nc1c(C(=O)c2ccc(F)cc2F)ccc(=O)n1-c1c(F)cc(CCN[C@H](C(=O)OC2CCCC2)c2ccc(O)cc2)cc1F` [Example 44, Cyclopentyl (2S)-{[2-(4-{6-amino-5-[(2,4-difluorophenyl)carbonyl]-2-oxopyridin-1(2H)-yl}-3,5-difluorophenyl)ethyl]amino}(4-hydroxyphenyl)ethanoate], the IC50 with THP-1 TNFα release and on p38 MAP Kinase a was below 100 nM in each case.
`CC(C)C[C@H](NCCc1ccc(-n2c(N)c(C(=O)c3ccc(F)cc3F)ccc2=O)s1)C(=O)OC1CCCC1` [Example 49, Cyclopentyl N-(2-{5-[6-amino-5-(2,4-difluorobenzoyl)-2-oxopyridin-1(2H)-yl]-2-thienyl}ethyl)-L-leucinate]: the values for the IC50 with THP-1 TNFα release and on p38 MAP Kinase a were below 100 nM and 100 to 1000 nM, respectively.
The like results for `CC(C)C[C@@H](NCCc1cc(F)c(-n2c(N)c(C(=O)c3ccc(F)cc3)ccc2=O)c(F)c1)C(=O)OC(C)(C)C` [Example 30, tert-butyl N-(2-{4-[6-amino-5-(4-fluorobenzoyl)-2-oxopyridin-1(2H)-yl]-3,5-difluorophenyl}ethyl)-D-leucinate] were, in that order, 100 to 1000 nM and 100 to 1000 nM.
In the case of `CC(C)C[C@H](NCCc1ccc(-n2c(N)c(C(=O)c3ccc(F)cc3F)ccc2=O)cc1)C(=O)O[C@@H]1CC(C)CC[C@H]1C(C)C` (stereo in doubt) [Example 13, (1R,2S,5S)-2-Isopropyl-5-methylcyclohexyl N-(2-{4-[6-amino-5-(2,4-difluorobenzoyl)-2-oxopyridin-1(2H)-yl]phenyl}ethyl)-L-leucinate], the results for the IC50 in the assay with THP-1 TNFα release and on p38 MAP Kinase a were below 100 nM and above 1000 nM, respectively.
